Data: patent publication EP4722212A1, “NOVEL COMPOUND FOR INHIBITING PROTEIN KINASES AND PHARMACEUTICAL COMPOSITION COMPRISING SAME” (Magicbullettherapeutics Co., Ltd., priority 2023, dated 2024)
pIC50: −log10 of the molar value.

Tests used:
ACK1 = target: T1, ACK1 (Homo sapiens, UniProt Q07912); test: Enzyme activity inhibition (Reaction Biology); assay type: biochemical
T1 construct: purchased Reaction Biology (RBC)
Description: (§1) [* <10 nM: A, <100 nM: B, >100 nM: C]. [Table 7]

BMX = target: T2, BMX (Homo sapiens, UniProt P51813); test: Enzyme activity inhibition (Reaction Biology); assay type: biochemical
T2 construct: purchased Reaction Biology (RBC)
T2 sequence (P51813 1-675): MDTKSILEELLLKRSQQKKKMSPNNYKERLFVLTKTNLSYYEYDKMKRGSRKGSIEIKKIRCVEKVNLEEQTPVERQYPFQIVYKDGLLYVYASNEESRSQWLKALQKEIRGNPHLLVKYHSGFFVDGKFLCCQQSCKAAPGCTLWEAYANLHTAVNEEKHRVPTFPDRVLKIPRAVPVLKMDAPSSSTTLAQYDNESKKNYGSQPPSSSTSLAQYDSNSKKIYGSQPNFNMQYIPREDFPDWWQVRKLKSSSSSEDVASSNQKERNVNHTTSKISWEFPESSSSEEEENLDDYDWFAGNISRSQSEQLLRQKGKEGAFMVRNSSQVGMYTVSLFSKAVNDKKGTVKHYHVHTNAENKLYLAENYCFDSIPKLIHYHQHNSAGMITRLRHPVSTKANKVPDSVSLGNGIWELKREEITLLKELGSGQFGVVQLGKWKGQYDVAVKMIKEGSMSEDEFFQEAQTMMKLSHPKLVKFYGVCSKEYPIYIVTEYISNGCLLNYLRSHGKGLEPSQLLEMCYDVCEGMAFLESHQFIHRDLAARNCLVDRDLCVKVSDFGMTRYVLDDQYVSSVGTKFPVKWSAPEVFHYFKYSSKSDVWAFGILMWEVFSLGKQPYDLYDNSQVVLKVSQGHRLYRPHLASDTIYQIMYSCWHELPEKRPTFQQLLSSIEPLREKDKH
Description: as §1

Src = target: T3, Src (Homo sapiens, UniProt P12931); test: Enzyme activity inhibition (Reaction Biology); assay type: biochemical
T3 construct: purchased Reaction Biology (RBC)
Description: as §1

HT-29 = test: Cell line inhibition analysis (CCK-8, 72 h); assay type: cell-based; settings: Homo sapiens, read-out: Cell growth inhibition GI50 HT-29
Description: (§2) C4-2B and 22Rv1 cells were purchased from ATCC and cultured according to the manufacturer's instructions. The cells were seeded in 96-well plates at 7×10^3cells/100 µl/well and allowed to attach for one day. After removing the culture medium, 90 µl/well of fresh culture medium was added, followed by addition of 10 µl/well of culture medium containing compounds at nine concentrations (0.076-500 µM) serially diluted 3-fold and DMSO control to achieve final concentrations of 0-50 µM, and then cultured for 72 hours in a 37 °C CO2 incubator. Cell proliferation after 72 hours was assessed by adding 10 µl/well of CCK-8 solution, orbital shaking for 30 seconds, then incubating at 37 °C CO2 incubator for 2 hours and measuring absorbance at 450 nm using a microplate reader. The measured absorbance values were corrected by subtracting the absorbance of wells containing only culture medium and CCK-8 solution, and GI50 values were calculated using GraphPad Prism 8 software.
(§3) Meanwhile, in a separate 96-well plate, cells were seeded at 7 × 10^3 cells/100 µl/well, allowed to attach for one day, CCK-8 solution was added, and absorbance was measured to establish the 'Growth (%) = 0' value.
(§4) Furthermore, experiments were conducted on A172, A549, HCI-H460, AsPC-1, MIA-Paca-2, DLD-1, HCT-116, HT-29, SW480, SW620, MDA-MB-231, and SKOV3 cell lines using the same method, with results shown in Tables 9 and 10 below [* <1 µM: A, <5 µM: B, <10 µM: C, >10 µM: D].

SW620 = test: Cell line inhibition analysis (CCK-8, 72 h); assay type: cell-based; settings: Homo sapiens, SW-620; read-out: Cell growth inhibition GI50 SW620
Description: as §2, §3, §4

AsPC-1 = test: Cell line inhibition analysis (CCK-8, 72 h); assay type: cell-based; settings: Homo sapiens, ASPC1; read-out: Cell growth inhibition GI50 AsPC-1
Description: as §2, §3, §4

HCI-H460 = test: Cell line inhibition analysis (CCK-8, 72 h); assay type: cell-based; settings: read-out: Cell growth inhibition GI50 HCI-H460
Description: as §2, §3, §4

A549 = test: Cell line inhibition analysis (CCK-8, 72 h); assay type: cell-based; settings: Homo sapiens, read-out: Cell growth inhibition GI50 A549
Description: as §2, §3, §4

MDA-MB-231 = test: Cell line inhibition analysis (CCK-8, 72 h); assay type: cell-based; settings: Homo sapiens, read-out: Cell growth inhibition GI50 MDA-MB-231
Description: as §2, §3, §4

MIA-Paca-2 = test: Cell line inhibition analysis (CCK-8, 72 h); assay type: cell-based; settings: Homo sapiens, read-out: Cell growth inhibition GI50 MIA-Paca-2
Description: as §2, §3, §4

DLD-1 = test: Cell line inhibition analysis (CCK-8, 72 h); assay type: cell-based; settings: Homo sapiens, read-out: Cell growth inhibition GI50 DLD-1
Description: as §2, §3, §4

SW480 = test: Cell line inhibition analysis (CCK-8, 72 h); assay type: cell-based; settings: Homo sapiens, read-out: Cell growth inhibition GI50 SW480
Description: as §2, §3, §4

A172 = test: Cell line inhibition analysis (CCK-8, 72 h); assay type: cell-based; settings: Homo sapiens, A 172; read-out: Cell growth inhibition GI50 A172
Description: as §2, §3, §4

HCT-116 = test: Cell line inhibition analysis (CCK-8, 72 h); assay type: cell-based; settings: Homo sapiens, read-out: Cell growth inhibition GI50 HCT-116
Description: as §2, §3, §4

SKOV3 = test: Cell line inhibition analysis (CCK-8, 72 h); assay type: cell-based; settings: Homo sapiens, SK-OV-3; read-out: Cell growth inhibition GI50 SKOV3
Description: as §2, §3, §4

ARAF = test: Kinase panel; assay type: biochemical; settings: 1 µM
Description: (§5) To measure the inhibitory activity of protein kinases against the compounds of the present invention, a biochemical assay was performed using a full kinase panel. The inhibitory efficacy of kinases was measured when Example compounds 8 and 51 were treated at a single concentration of 1 µM, and residual enzyme activity values were calculated. Kinases were identified when the calculated residual enzyme activity values were 40% or less, i.e., inhibited by 60% or more.

SIK3 = SIK3 (Homo sapiens, UniProt Q9Y2K2); test: Kinase panel; assay type: biochemical; settings: SIK3, 1 µM; read-out: residual enzyme activity
Description: as §5

ALK4/ACVR1B = ALK4/ACVR1B (Homo sapiens, UniProt P36896); test: Kinase panel; assay type: biochemical; settings: read-out: residual enzyme activity
Description: as §5

LIMK2 = LIMK2 (Homo sapiens, UniProt P53671); test: Kinase panel; assay type: biochemical; settings: LIMK2, 1 µM; read-out: residual enzyme activity
Description: as §5

LATS2 = LATS2 (Homo sapiens, UniProt Q9NRM7); test: Kinase panel; assay type: biochemical; settings: LATS2, 1 µM; read-out: residual enzyme activity
Description: as §5

PKCB2 = PKCB2 (Homo sapiens, UniProt P05771); test: Kinase panel; assay type: biochemical; settings: PKCb2, 1 µM; read-out: residual enzyme activity
Description: as §5

Chain of PKCB2 (P05771 1-673 isoform P05771-2): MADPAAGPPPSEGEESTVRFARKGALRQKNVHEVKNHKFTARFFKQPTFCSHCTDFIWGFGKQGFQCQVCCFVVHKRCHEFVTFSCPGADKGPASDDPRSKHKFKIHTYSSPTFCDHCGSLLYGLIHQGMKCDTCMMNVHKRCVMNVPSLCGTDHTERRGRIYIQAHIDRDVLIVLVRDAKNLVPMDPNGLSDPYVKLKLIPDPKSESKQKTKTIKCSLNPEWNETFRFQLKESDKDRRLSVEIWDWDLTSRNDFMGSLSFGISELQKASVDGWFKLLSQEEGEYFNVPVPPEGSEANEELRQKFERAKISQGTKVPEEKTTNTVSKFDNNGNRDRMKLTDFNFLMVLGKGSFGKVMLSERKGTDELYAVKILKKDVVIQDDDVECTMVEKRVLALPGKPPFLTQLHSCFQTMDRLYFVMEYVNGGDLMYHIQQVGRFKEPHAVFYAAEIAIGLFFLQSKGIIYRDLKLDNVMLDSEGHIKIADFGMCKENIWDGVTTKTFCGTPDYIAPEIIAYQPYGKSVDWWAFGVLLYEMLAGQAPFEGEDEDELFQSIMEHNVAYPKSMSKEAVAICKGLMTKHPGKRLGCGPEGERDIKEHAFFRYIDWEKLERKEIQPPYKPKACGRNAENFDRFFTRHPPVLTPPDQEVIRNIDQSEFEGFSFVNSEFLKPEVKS
Chain of LATS2 (Q9NRM7 whole entry, species assumed): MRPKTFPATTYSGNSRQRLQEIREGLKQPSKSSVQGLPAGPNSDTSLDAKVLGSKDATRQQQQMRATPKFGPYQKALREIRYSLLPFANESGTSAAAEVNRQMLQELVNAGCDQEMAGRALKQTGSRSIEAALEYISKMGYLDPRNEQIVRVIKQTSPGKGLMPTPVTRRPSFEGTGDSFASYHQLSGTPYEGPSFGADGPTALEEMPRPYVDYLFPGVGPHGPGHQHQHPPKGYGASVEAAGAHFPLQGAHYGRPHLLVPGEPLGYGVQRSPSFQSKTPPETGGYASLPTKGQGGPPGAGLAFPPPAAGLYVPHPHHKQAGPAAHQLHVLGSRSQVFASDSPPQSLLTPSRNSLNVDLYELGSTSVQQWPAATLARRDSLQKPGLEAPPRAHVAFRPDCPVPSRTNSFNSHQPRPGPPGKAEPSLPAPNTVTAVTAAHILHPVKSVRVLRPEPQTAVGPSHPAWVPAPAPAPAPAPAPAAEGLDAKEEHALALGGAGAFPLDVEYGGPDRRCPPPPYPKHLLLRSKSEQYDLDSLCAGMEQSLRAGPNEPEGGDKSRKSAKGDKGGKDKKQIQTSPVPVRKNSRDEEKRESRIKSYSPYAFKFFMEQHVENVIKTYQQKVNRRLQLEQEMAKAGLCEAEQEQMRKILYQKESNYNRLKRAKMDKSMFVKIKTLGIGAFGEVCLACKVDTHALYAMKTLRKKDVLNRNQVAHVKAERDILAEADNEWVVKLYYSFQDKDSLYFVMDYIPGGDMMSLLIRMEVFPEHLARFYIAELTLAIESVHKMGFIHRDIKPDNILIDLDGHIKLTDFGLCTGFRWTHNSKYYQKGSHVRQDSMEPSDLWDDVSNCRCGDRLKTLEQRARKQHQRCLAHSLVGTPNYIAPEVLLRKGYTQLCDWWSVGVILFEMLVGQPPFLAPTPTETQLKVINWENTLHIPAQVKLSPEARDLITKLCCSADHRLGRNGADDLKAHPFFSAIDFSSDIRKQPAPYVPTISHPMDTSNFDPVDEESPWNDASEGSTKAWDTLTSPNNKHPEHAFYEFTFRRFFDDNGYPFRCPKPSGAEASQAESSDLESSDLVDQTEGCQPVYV
T3 sequence (P12931 whole entry): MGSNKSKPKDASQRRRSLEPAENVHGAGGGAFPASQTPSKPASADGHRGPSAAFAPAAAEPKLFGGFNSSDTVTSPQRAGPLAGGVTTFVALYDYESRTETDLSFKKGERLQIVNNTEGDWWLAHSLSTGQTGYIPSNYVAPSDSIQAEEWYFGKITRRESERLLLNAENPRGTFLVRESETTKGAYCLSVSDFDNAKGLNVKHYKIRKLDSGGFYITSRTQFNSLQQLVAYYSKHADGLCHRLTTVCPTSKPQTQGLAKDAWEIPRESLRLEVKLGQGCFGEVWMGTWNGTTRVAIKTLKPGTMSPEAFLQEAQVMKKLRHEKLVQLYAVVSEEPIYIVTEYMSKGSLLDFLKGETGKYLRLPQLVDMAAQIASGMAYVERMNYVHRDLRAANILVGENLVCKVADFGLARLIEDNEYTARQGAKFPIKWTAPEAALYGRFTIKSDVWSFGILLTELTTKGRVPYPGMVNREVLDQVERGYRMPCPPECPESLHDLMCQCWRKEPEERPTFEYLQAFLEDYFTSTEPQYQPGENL
T1 sequence (Q07912 whole entry): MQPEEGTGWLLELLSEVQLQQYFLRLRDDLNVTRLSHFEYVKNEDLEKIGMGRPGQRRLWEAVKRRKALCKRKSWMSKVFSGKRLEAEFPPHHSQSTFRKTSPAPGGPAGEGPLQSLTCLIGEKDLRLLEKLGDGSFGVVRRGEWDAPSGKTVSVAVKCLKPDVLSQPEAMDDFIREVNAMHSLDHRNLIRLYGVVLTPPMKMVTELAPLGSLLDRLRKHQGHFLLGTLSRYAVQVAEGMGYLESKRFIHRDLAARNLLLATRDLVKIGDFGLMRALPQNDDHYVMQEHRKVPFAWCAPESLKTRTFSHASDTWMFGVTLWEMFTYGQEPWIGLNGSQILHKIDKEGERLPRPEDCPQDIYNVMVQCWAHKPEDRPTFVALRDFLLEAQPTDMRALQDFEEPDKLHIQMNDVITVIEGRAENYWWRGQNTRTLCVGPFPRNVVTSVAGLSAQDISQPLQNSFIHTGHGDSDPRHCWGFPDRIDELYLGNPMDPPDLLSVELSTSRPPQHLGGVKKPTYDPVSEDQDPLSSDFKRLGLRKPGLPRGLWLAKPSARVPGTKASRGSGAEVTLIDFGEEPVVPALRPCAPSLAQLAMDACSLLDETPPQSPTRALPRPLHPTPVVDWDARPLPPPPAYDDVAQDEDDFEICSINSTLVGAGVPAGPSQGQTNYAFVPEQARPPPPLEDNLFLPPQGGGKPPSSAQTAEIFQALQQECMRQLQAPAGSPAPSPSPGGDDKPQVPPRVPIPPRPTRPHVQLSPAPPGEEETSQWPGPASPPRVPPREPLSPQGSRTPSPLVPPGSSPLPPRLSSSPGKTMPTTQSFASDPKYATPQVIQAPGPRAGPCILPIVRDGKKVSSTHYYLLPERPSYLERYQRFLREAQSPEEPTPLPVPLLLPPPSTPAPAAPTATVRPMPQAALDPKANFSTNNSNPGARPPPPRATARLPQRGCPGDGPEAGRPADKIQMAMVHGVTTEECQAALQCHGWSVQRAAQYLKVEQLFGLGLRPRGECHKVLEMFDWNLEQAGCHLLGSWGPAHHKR
Chain of SIK3 (Q9Y2K2 whole entry, species assumed): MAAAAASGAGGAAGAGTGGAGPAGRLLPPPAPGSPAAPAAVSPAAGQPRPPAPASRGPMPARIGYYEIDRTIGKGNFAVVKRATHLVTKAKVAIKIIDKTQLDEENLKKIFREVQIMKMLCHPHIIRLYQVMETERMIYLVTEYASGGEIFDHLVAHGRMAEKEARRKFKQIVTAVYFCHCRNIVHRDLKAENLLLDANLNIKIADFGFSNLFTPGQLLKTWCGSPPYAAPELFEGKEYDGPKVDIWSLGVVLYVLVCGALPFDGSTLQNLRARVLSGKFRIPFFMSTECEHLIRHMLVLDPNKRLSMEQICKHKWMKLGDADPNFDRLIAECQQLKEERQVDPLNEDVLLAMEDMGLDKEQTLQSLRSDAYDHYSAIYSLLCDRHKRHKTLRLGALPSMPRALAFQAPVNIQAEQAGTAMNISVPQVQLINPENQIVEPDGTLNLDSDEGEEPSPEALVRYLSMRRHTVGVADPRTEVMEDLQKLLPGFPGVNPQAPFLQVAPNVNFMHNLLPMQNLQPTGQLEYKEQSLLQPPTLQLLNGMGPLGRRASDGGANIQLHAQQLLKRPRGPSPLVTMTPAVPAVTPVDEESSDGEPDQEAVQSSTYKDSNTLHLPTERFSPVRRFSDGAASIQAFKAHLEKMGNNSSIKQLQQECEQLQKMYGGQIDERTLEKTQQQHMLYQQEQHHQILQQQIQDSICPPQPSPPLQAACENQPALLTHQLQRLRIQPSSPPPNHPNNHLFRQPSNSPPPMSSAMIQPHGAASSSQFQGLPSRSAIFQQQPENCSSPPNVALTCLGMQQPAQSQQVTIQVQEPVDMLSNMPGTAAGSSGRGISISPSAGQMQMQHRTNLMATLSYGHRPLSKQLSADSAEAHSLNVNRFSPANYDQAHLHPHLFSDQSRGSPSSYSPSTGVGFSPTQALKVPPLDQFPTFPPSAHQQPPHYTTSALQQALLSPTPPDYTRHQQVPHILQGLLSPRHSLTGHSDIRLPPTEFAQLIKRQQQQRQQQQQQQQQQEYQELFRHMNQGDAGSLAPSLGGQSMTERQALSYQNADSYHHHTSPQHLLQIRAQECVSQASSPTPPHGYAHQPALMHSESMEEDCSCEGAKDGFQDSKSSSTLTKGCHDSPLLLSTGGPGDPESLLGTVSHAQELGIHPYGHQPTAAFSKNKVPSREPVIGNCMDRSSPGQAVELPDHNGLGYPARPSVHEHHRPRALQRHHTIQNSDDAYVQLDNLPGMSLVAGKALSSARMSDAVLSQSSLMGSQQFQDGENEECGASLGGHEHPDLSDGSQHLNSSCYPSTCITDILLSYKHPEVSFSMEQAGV

Compound	pIC50 (ACK1)	pIC50 (BMX)	pIC50 (Src)	GI50 (HT-29)	GI50 (SW620)	GI50 (AsPC-1)	GI50 (HCI-H460)	GI50 (A549)	GI50 (MDA-MB-231)	GI50 (MIA-Paca-2)	GI50 (DLD-1)	GI50 (SW480)	GI50 (A172)	GI50 (HCT-116)	GI50 (SKOV3)	residual enzyme activity (ARAF)	remaining activity at 1 µM (SIK3)	remaining activity at 1 µM (ALK4/ACVR1B)	remaining activity at 1 µM (LIMK2)	remaining activity at 1 µM (LATS2)	also measured
Cc1ccc(Nc2ncc3c(n2)C2(CC2)C(=O)N(c2cc(NC(=O)c4cccc(C(F)(F)F)c4)ccc2C)C3)cn1 [Compound 51, N-(4-methyl-3-(2'-((6-methylpyridin-3-yl)amino)-7'-oxo-5'H-spiro[cyclopropane-1,8'-pyrido[4,3-d]pyrimidine]-6'(7'H)-yl)phenyl)-3-(trifluoromethyl)benzamide]	7.00 to 8.00	> 8.00	> 8.00	1000 to 5000 nM	1000 to 5000 nM	< 1000 nM	< 1000 nM	1000 to 5000 nM	< 1000 nM	< 1000 nM	1000 to 5000 nM	< 1000 nM	< 1000 nM	< 1000 nM	< 1000 nM	O (residual enzyme activity values were 40% or less, i.e., inhibited by 60% or more)	≤ 40%	> 40%	≤ 40%	≤ 40%	remaining activity at 1 µM (PKCB2): > 40%
Cc1cn(-c2cc(C(=O)Nc3ccc(C)c(N4Cc5cnc(NC6CC6)nc5C5(CC5)C4=O)c3)cc(C(F)(F)F)c2)cn1 [Compound 8, N-(3-(2'-(cyclopropylamino)-7'-oxo-5'H-spiro[cyclopropane-1,8'-pyrido[4,3-d]pyrimidine]-6'(7'H)-yl)-4-methylphenyl)-3-(4-methyl-1H-imidazol-1-yl)-5-(trifluoromethyl)benzamide]	> 8.00	> 8.00	7.00 to 8.00	> 10000 nM	1000 to 5000 nM	1000 to 5000 nM	1000 to 5000 nM	> 10000 nM	1000 to 5000 nM	< 1000 nM	1000 to 5000 nM	1000 to 5000 nM	< 1000 nM	< 1000 nM	1000 to 5000 nM	O (residual enzyme activity values were 40% or less, i.e., inhibited by 60% or more)	≤ 40%	> 40%	≤ 40%	≤ 40%	remaining activity at 1 µM (PKCB2): > 40%
